PubChem BioAssay AID1963868 (Molecular Pharmacology Branch, DTP, NCI, 2024)

System: KRAS PDC tumor spheroids (HUVEC+MSC), viability
Experiment: Anticancer human tumor 254851-301-R-J1-PDC patient-derived colon carcinoma cell line growth inhibition [KRAS2]
Settings: for IC50: curve of first compound; for viability, T/C: stronger effect = lower value
Procedure, shortened: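 Combination screen of spheroid viability in tumor-cell co-cultures with endothelial (HUVEC) and mesenchymal stem cell stroma. Each agent was tested in half-log dilutions, topping at clinical Cmax or at 10 microM without a known Cmax.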

[1] = second compound 0.1 µM, first compound 0.000316 µM
[2] = second compound 0.1 µM, first compound 0.001 µM
[3] = second compound 0.1 µM, first compound 0.00316 µM
[4] = second compound 0.1 µM, first compound 0.01 µM
[5] = second compound 0.1 µM, first compound 0.0316 µM
[6] = second compound 0.316 µM, first compound 0.000316 µM
[7] = second compound 0.316 µM, first compound 0.001 µM
[8] = second compound 0.316 µM, first compound 0.00316 µM
[9] = second compound 0.316 µM, first compound 0.01 µM
[10] = second compound 0.316 µM, first compound 0.0316 µM
[11] = second compound 1 µM, first compound 0.000316 µM
[12] = second compound 1 µM, first compound 0.001 µM
[13] = second compound 1 µM, first compound 0.00316 µM
[14] = second compound 1 µM, first compound 0.01 µM
[15] = second compound 1 µM, first compound 0.0316 µM
[16] = second compound 3.16 µM, first compound 0.000316 µM
[17] = second compound 3.16 µM, first compound 0.001 µM
[18] = second compound 3.16 µM, first compound 0.00316 µM
[19] = second compound 3.16 µM, first compound 0.01 µM
[20] = second compound 3.16 µM, first compound 0.0316 µM
[21] = second compound 10 µM, first compound 0.000316 µM
[22] = second compound 10 µM, first compound 0.001 µM
[23] = second compound 10 µM, first compound 0.00316 µM
[24] = second compound 10 µM, first compound 0.01 µM
[25] = second compound 10 µM, first compound 0.0316 µM
[26] = second compound 0.1 µM, first compound 0.1 µM
[27] = second compound 0.316 µM, first compound 0.1 µM
[28] = second compound 1 µM, first compound 0.1 µM
[29] = second compound 3.16 µM, first compound 0.1 µM
[30] = second compound 10 µM, first compound 0.1 µM
[31] = second compound 0.1 µM, first compound 0.316 µM
[32] = second compound 0.1 µM, first compound 1 µM
[33] = second compound 0.1 µM, first compound 3.16 µM
[34] = second compound 0.1 µM, first compound 10 µM
[35] = second compound 0.316 µM, first compound 0.316 µM
[36] = second compound 0.316 µM, first compound 1 µM
[37] = second compound 0.316 µM, first compound 3.16 µM
[38] = second compound 0.316 µM, first compound 10 µM
[39] = second compound 1 µM, first compound 0.316 µM
[40] = second compound 1 µM, first compound 1 µM
[41] = second compound 1 µM, first compound 3.16 µM
[42] = second compound 1 µM, first compound 10 µM
[43] = second compound 3.16 µM, first compound 0.316 µM
[44] = second compound 3.16 µM, first compound 1 µM
[45] = second compound 3.16 µM, first compound 3.16 µM
[46] = second compound 3.16 µM, first compound 10 µM
[47] = second compound 10 µM, first compound 0.316 µM
[48] = second compound 10 µM, first compound 1 µM
[49] = second compound 10 µM, first compound 3.16 µM
[50] = second compound 10 µM, first compound 10 µM
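Also: spheroids exposed to compounds for seven days before readout.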
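For viability, T/C in this document: 100% = DMSO vehicle control luminescence of the spheroids.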

CC(=O)Nc1cccc(-n2c(=O)n(C3CC3)c(=O)c3c(Nc4ccc(I)cc4F)n(C)c(=O)c(C)c32)c1 + CNCc1ccccc1-c1csc(C(C)Nc2nc(C)nc3cc(OC)c(OC)cc23)c1
IC50 (second compound 0.1 µM): 4.7 nM
IC50 (second compound 0.316 µM): 5.18 nM
IC50 (second compound 1 µM): 2.4 nM
IC50 (second compound 3.16 µM): 0.639 nM
IC50 (second compound 10 µM): < 0.1 nM
viability, T/C (second compound 0.1 µM, first compound 0.0001 µM): 101%
viability, T/C [1]: 101%
viability, T/C [2]: 87.7%
viability, T/C [3]: 71%
viability, T/C [4]: 11.4%
viability, T/C [5]: 2.93%
viability, T/C (second compound 0.316 µM, first compound 0.0001 µM): 82.5%
viability, T/C [6]: 99.8%
viability, T/C [7]: 87.1%
viability, T/C [8]: 78.2%
viability, T/C [9]: 12.6%
viability, T/C [10]: 2.77%
viability, T/C (second compound 1 µM, first compound 0.0001 µM): 94.4%
viability, T/C [11]: 94.9%
viability, T/C [12]: 88.2%
viability, T/C [13]: 37.9%
viability, T/C [14]: 5.82%
viability, T/C [15]: 2.26%
viability, T/C (second compound 3.16 µM, first compound 0.0001 µM): 72.5%
viability, T/C [16]: 74.9%
viability, T/C [17]: 34.9%
viability, T/C [18]: 0.57%
viability, T/C [19]: 0.32%
viability, T/C [20]: 0.28%
viability, T/C (second compound 10 µM, first compound 0.0001 µM): 0.16%
viability, T/C [21]: 0.15%
viability, T/C [22]: 0.13%
viability, T/C [23]: 0.1%
viability, T/C [24]: 0.09%
viability, T/C [25]: 0.15%

CC(C)n1nc(-c2ccc3oc(N)nc3c2)c2c(N)ncnc21 + CNCc1ccccc1-c1csc(C(C)Nc2nc(C)nc3cc(OC)c(OC)cc23)c1
IC50 (second compound 0.1 µM): 18.6 nM
IC50 (second compound 0.316 µM): 19.7 nM
IC50 (second compound 1 µM): 17.4 nM
IC50 (second compound 3.16 µM): 6.04 nM
IC50 (second compound 10 µM): < 0.316 nM
viability, T/C [1]: 110%
viability, T/C [2]: 98.6%
viability, T/C [3]: 89.2%
viability, T/C [4]: 64.8%
viability, T/C [5]: 36.8%
viability, T/C [26]: 23.3%
viability, T/C [6]: 96.1%
viability, T/C [7]: 105%
viability, T/C [8]: 82%
viability, T/C [9]: 73.4%
viability, T/C [10]: 33.8%
viability, T/C [27]: 23.4%
viability, T/C [11]: 88.6%
viability, T/C [12]: 95%
viability, T/C [13]: 80.4%
viability, T/C [14]: 68%
viability, T/C [15]: 31.4%
viability, T/C [28]: 19.5%
viability, T/C [16]: 81.1%
viability, T/C [17]: 76.7%
viability, T/C [18]: 53.8%
viability, T/C [19]: 45.9%
viability, T/C [20]: 25%
viability, T/C [29]: 9.11%
viability, T/C [21]: 0.21%
viability, T/C [22]: 0.19%
viability, T/C [23]: 0.17%
viability, T/C [24]: 0.14%
viability, T/C [25]: 0.14%
viability, T/C [30]: 0.19%

COc1cc(Nc2ncc3c(n2)-c2ccc(Cl)cc2C(c2c(F)cccc2OC)=NC3)ccc1C(=O)O + CNCc1ccccc1-c1csc(C(C)Nc2nc(C)nc3cc(OC)c(OC)cc23)c1
IC50 (second compound 0.1 µM): 82.8 nM
IC50 (second compound 0.316 µM): 83.4 nM
IC50 (second compound 1 µM): 87.1 nM
IC50 (second compound 3.16 µM): < 31.6 nM
IC50 (second compound 10 µM): < 31.6 nM
viability, T/C [5]: 80%
viability, T/C [26]: 40.1%
viability, T/C [31]: 29.3%
viability, T/C [32]: 26.2%
viability, T/C [33]: 18.5%
viability, T/C [34]: 9.63%
viability, T/C [10]: 77.9%
viability, T/C [27]: 39.5%
viability, T/C [35]: 31.1%
viability, T/C [36]: 27%
viability, T/C [37]: 17.7%
viability, T/C [38]: 9.95%
viability, T/C [15]: 82%
viability, T/C [28]: 39.5%
viability, T/C [39]: 32.8%
viability, T/C [40]: 28.6%
viability, T/C [41]: 21.6%
viability, T/C [42]: 9.92%
viability, T/C [20]: 49.5%
viability, T/C [29]: 22.9%
viability, T/C [43]: 20.6%
viability, T/C [44]: 12.5%
viability, T/C [45]: 6.88%
viability, T/C [46]: 4.66%
viability, T/C [25]: 0.15%
viability, T/C [30]: 0.13%
viability, T/C [47]: 0.12%
viability, T/C [48]: 0.1%
viability, T/C [49]: 0.11%
viability, T/C [50]: 0.14%

COc1cc2nccc(Oc3ccc(NC(=O)C4(C(=O)Nc5ccc(F)cc5)CC4)cc3)c2cc1OC + CNCc1ccccc1-c1csc(C(C)Nc2nc(C)nc3cc(OC)c(OC)cc23)c1
IC50 (second compound 0.1 µM): 9900 nM
IC50 (second compound 0.316 µM): 7280 nM
IC50 (second compound 1 µM): 6420 nM
IC50 (second compound 3.16 µM): 1630 nM
IC50 (second compound 10 µM): < 31.6 nM
viability, T/C [5]: 102%
viability, T/C [26]: 104%
viability, T/C [31]: 97.2%
viability, T/C [32]: 103%
viability, T/C [33]: 101%
viability, T/C [34]: 49.6%
viability, T/C [10]: 112%
viability, T/C [27]: 91.5%
viability, T/C [35]: 96.3%
viability, T/C [36]: 101%
viability, T/C [37]: 85.5%
viability, T/C [38]: 36.3%
viability, T/C [15]: 107%
viability, T/C [28]: 102%
viability, T/C [39]: 100%
viability, T/C [40]: 99.7%
viability, T/C [41]: 82.7%
viability, T/C [42]: 29.3%
viability, T/C [20]: 82%
viability, T/C [29]: 78%
viability, T/C [43]: 72.4%
viability, T/C [44]: 64.4%
viability, T/C [45]: 32.5%
viability, T/C [46]: 0.27%
viability, T/C [25]: 0.19%
viability, T/C [30]: 0.17%
viability, T/C [47]: 0.16%
viability, T/C [48]: 0.18%
viability, T/C [49]: 0.13%
viability, T/C [50]: 0.17%
